Columns and labels:
Format in all cases: in vivo
Anaesthetized cat = assay: Blood pressure and heart rate in the anaesthetized cat (i.v.); conditions: maximum variation from control
Procedure: (§1) The action of the test compounds on the activity in the sympathetic nervous system is investigated on cats in urethane narcosis. The preganglionic sympathetic activity is derived by means of biopolar platinum electrodes from the splanchnic nerve and the postganglionic sympathetic activity is derived from a nerve branch to the kidney according to the method of G. Hausler [Naunyn-Schmiedeberg's Arch. Pharmacol. 286, 97-111 (1974)]. Moreover, there is measured the arterial blood pressure from the femoral artery as well as the heart rate. The test substance is injected intravenously. When a test substance in blood pressure-lowering dosages inhibits the sympathetic activity during more than 30 minutes by more than 30%, then it is qualified as having "central sympathetic-inhibitory activity".
(§2) In the Table which follows, the results obtained with compounds A to H are compiled. The maximum percentage variations from the control values are given.

[1] = test system: Spontaneously hypertensive rat; assay: Cardiovascular activities: systolic blood pressure and heart rate in conscious spontaneously hypertensive rats (p.o.); conditions: maximum variation from control
Procedure: The cardiovascular activities can be determined according to the following method:
The systolic blood pressure and the heart rate are measured several times on conscious, spontaneously hypertensive female rats before the administration of the subtance. Per dosage there are used 5 experimental animals with a body weight of about 300 g. The administration of substance is carried out by means of a stomach probe. Both parameters are measured 1, 3, 6 and 16 hours after the administration and the percentage variation from the control values is calculated. The systolic blood pressure is measured indirectly at the tail artery of the rate according to the method of Gerold et al. (Helv. Physiol. Acta 24, 58-69 (1966); Arzneimittelforschung 18, 1285-1287 (1968).
as §2

[2] = test system: sympathetic nervous system; assay: Central sympathetic-inhibitory activity (cats in urethane narcosis); conditions: anaesthetized cat, i.v.; positive if sympathetic activity inhibited >30% for >30 minutes in blood pressure-lowering dosages
Source text: The central sympathetic-inhibitory activity can be determined according to the following method:
as §1

writhing (mouse) = assay: Writhing test (mouse), 60 minutes after peroral administration; conditions: po, 1 h, orally, 60 minutes after administration, 50% of animals show no more than one writhing
Procedure: In carrying out the experiment there are used in each case 8 male mice (20-22 g) per dosage. 60 minutes after the oral administration of the test substance 10 ml/kg of the test solution is administered to the animals by intraperitoneal injection. After a latent period of 5 minutes, the number of animals in which during 5 minutes no more than one characteristic writhing symptom, that is, convulsive stretching movement of the body, occurs is registered. The ED 50 indicates the oral dosage in mg/kg at which 50% of the animals show no more than one writhing.
60 minutes after peroral administration

opiate receptor = assay: Cancellation of the analgesia by the opiate receptor blocker naloxone
[3] = test system: morphine-antagonistic activity; assay: Morphine-antagonistic activity
[4] = test system: electrical stimulation of the dental pulp; assay: Activity against an electrical stimulation of the dental pulp in apes, peroral; conditions: after peroral administration
α-adrenergic receptor = assay: Cancellation of the analgesia by the α-adrenergic receptor blocker yohimbine

Row | Structure (SMILES) | Blood pressure, Δ% (Anaesthetized cat; 1.0 mg/kg (i.v.)) | Heart rate, Δ% (Anaesthetized cat; 1.0 mg/kg (i.v.)) | Blood pressure, Δ% (Anaesthetized cat; 3.0 mg/kg (i.v.)) | Heart rate, Δ% (Anaesthetized cat; 3.0 mg/kg (i.v.)) | Heart rate, Δ% (Anaesthetized cat; 10.0 mg/kg (i.v.)) | Blood pressure, Δ% ([1]; 1.0 mg/kg (p.o.)) | Heart rate, Δ% ([1]; 1.0 mg/kg (p.o.)) | Blood pressure, Δ% ([1]; 3.0 mg/kg (p.o.)) | Heart rate, Δ% ([1]; 3.0 mg/kg (p.o.)) | Central sympathetic-inhibitory activity [2] | ED50 (writhing (mouse)) | Blood pressure, Δ% ([1]; 10.0 mg/kg (p.o.)) | Heart rate, Δ% ([1]; 10.0 mg/kg (p.o.)) | Blood pressure, Δ% (Anaesthetized cat; 10.0 mg/kg (i.v.)) | further results
1 | [O-][n+]1ccccc1CON1CCNC1=Nc1cccc(Cl)c1Cl [B, 2-([{2-[(2,3-Dichlorophenyl)imino]-1-imidazolidinyl}oxy]methyl)pyridine 1-oxide] | -5% | 0% | -25% | -6% | -6% | -4.1% | -11.8% | -7.8% | -8.4% | none | 1.3 mg/kg | – | – | – | Blood pressure, Δ% (Anaesthetized cat; 10.0 mg/kg (i.v.), (15')): -50%
2 | CN(C1=NCCN1OCc1cccc[n+]1[O-])c1c(Cl)cccc1Cl [C, 2-[{[2-(2,6-Dichloro-N-methylanilino)-2-imidazolin-1-yl]oxy}methyl]pyridine 1-oxide] | – | -6% | – | – | – | +0.3% | +6.3% | +1.2% | -5.8% | none | 26 mg/kg | +2.2% | +3.2% | – | Blood pressure, Δ% (Anaesthetized cat; 1.0 mg/kg (i.v.), (5')): -14%; Blood pressure, Δ% (Anaesthetized cat; 3.0 mg/kg (i.v.), (10')): -21%; Heart rate, Δ% (Anaesthetized cat; 3.0 mg/kg (i.v.), (10')): -22%; Blood pressure, Δ% (Anaesthetized cat; 10.0 mg/kg (i.v.), (10')): -21%; Heart rate, Δ% (Anaesthetized cat; 10.0 mg/kg (i.v.), (10')): -22%
3 | [O-][n+]1ccccc1CON1CCNC1=Nc1c(Cl)cccc1Cl [Compound A, 2-([{2-[(2,6-Dichlorophenyl)imino]-1-imidazolidinyl}oxy]methyl)pyridine 1-oxide] | -5% | -5% | -10% | -5% | -29% | -0.2% | +15.2% | +0.3% | +3.3% | none | 3.5 mg/kg | -3.1% | -9.6% | -10% | cancellation of analgesia with naloxone (opiate receptor): not with the opiate receptor blocker naloxone; addictive activity ([3]; concluded from lack of morphine-antagonistic activity): absence of an addictive activity; morphine-antagonistic activity ([3]; in vivo): no morphine-antagonistic activity could be found; activity against an electrical stimulation of the dental pulp, relative to morphine [4]: three-times stronger activity than morphine; cancellation of analgesia with yohimbine (α-adrenergic receptor): can be cancelled out; Blood pressure, Δ% ([1]; 30.0 mg/kg (p.o.)): -10.5%; Heart rate, Δ% ([1]; 30.0 mg/kg (p.o.)): -3.6%; Blood pressure, Δ% ([1]; 100.0 mg/kg (p.o.)): 0%; Heart rate, Δ% ([1]; 100.0 mg/kg (p.o.)): 0%
4 | Cc1cc[n+]([O-])c(CON2CCNC2=Nc2c(Cl)cccc2Cl)c1 [D, 2-([{2-[(2,6-Dichlorophenyl)imino]-1-imidazolidinyl}oxy]methyl)-4-methylpyridin 1-oxide] | – | – | -22% | -27% | – | -7.0% | -10.0% | -10.2% | -7.5% | none | 16 mg/kg | -12.6% | -13.3% | – | Blood pressure, Δ% (Anaesthetized cat; 1.0 mg/kg (i.v.), (3')): -22%
5 | CC(ON1CCNC1=Nc1c(Cl)cccc1Cl)c1cc[n+]([O-])cc1 (centres unmarked) [E, 4-(1-[{2-[(2,6-Dichlorophenyl)imino]-1-imidazolidinyl}oxy]ethyl)pyridine1-oxide] | 0% | 0% | -4% | 0% | -14% | – | – | +10.2% | +4.0% | none | 7.3 mg/kg | -13.9% | -13.2% | -12% | Blood pressure, Δ% ([1]; 30.0 mg/kg (p.o.)): +2.4%; Heart rate, Δ% ([1]; 30.0 mg/kg (p.o.)): -9.9%
6 | Cc1ccc(CON2CCNC2=Nc2c(Cl)cccc2Cl)[n+]([O-])c1 [F, 2-([{2-[(2,6-Dichlorophenyl)imino]-1-imidazolidinyl}oxy]methyl)-5-methylpyridin 1-oxide] | 0% | 0% | 0% | 0% | -10% | -9.6% | -4.9% | -10.4% | -5.5% | none | 27 mg/kg | – | – | 0% | –
7 | Cc1cccc(CON2CCNC2=Nc2c(Cl)cccc2Cl)[n+]1[O-] [G, 2-([{2-[(2,6-Dichlorophenyl)imino]-1-imidazolidinyl}oxy]methyl)-6-methylpyridin 1-oxide] | -4% | 0% | -4% | -4% | -13% | – | – | – | – | none | 16 mg/kg | -12.0% | -22.6% | -15% | –
8 | [O-][n+]1ccc(O)cc1CON1CCNC1=Nc1c(Cl)cccc1Cl [H, 2-([{2-[(2,6-Dichlorophenyl)imino]-1-imidazolidinyl}oxy]methyl)-4-pyridinol 1-oxide] | -12% | 0% | – | -2% | – | – | – | – | – | none | 8.7 mg/kg | – | – | – | Blood pressure, Δ% (Anaesthetized cat; 3.0 mg/kg (i.v.), (10')): -27%; Blood pressure, Δ% (Anaesthetized cat; 10.0 mg/kg (i.v.), (10')): -62%; Heart rate, Δ% (Anaesthetized cat; 10.0 mg/kg (i.v.), (10')): -18%

Reference: US4366160A, “Imidazole derivatives” (Hoffmann-La Roche Inc., priority 1980, dated 1982)
